Source: PubChem BioAssay AID256 (DTP/NCI, 2004)
Values joined by “and” are separate entries in the source; they are usually repeats but may differ in a detail not shown here. Identical values can stand only once. Inconclusive results and toxic doses are left out. How the source made its calls: active means survival T/C of 150% or more; inactive means T/C below 125% in these data.

Tested on: CD2F1 mice, L1210 leukemia ip, survival T/C
Assay: NCI In Vivo Anticancer Drug Screen. Data for tumor model L1210 Leukemia (intraperitoneal) in CD2F1 (CDF1) mice
Settings: higher = longer survival
How it was run: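 Antitumor effect is scored in animals hosting a serially transplanted tumor. Values compare compound-dosed animals against vehicle-only controls as a simple quotient.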

[1] = endpoint: mean survival time, dose: 100.0 mg/kg/injection, schedule: Q01DX001 (ip), vehicle: saline with Tween-80
[2] = endpoint: mean survival time, dose: 200.0 mg/kg/injection, schedule: Q01DX001 (ip), vehicle: saline with Tween-80
[3] = endpoint: mean survival time, dose: 400.0 mg/kg/injection, schedule: Q01DX001 (ip), vehicle: saline with Tween-80
[4] = endpoint: mean survival time, dose: 100.0 mg/kg/injection, schedule: Q01DX009 (ip), vehicle: saline with Tween-80
[5] = endpoint: mean survival time, dose: 200.0 mg/kg/injection, schedule: Q01DX009 (ip), vehicle: saline with Tween-80
[6] = endpoint: mean survival time, dose: 400.0 mg/kg/injection, schedule: Q01DX009 (ip), vehicle: saline with Tween-80
[7] = endpoint: mean survival time, dose: 50.0 mg/kg/injection, schedule: Q01DX009 (ip), vehicle: saline with Tween-80
[8] = endpoint: mean survival time, dose: 100.0 mg/kg/injection, schedule: Q04DX003 (ip), vehicle: saline with Tween-80
[9] = endpoint: mean survival time, dose: 200.0 mg/kg/injection, schedule: Q04DX003 (ip), vehicle: saline with Tween-80

Measured: T/C

CC(C)(C)C(NO)C(O)N1CCCCC1 (configuration not stated)
inactive: endpoint: mean survival time, dose: 100.0 mg/kg/injection, schedule: Q01DX001 (ip), vehicle: saline 97 % of control | endpoint: mean survival time, dose: 200.0 mg/kg/injection, schedule: Q01DX001 (ip), vehicle: saline 95 % of control

O=P1(CCBr)NCCCO1 (configuration not stated)
inactive: endpoint: mean survival time, dose: 62.5 mg/kg/injection, schedule: Q01DX001 (ip), vehicle: water 100 % of control | endpoint: mean survival time, dose: 125.0 mg/kg/injection, schedule: Q01DX001 (ip), vehicle: water 97 % of control | endpoint: mean survival time, dose: 250.0 mg/kg/injection, schedule: Q01DX001 (ip), vehicle: water 94 % of control | endpoint: mean survival time, dose: 500.0 mg/kg/injection, schedule: Q01DX001 (ip), vehicle: water 97 % of control | endpoint: mean survival time, dose: 750.0 mg/kg/injection, schedule: Q01DX001 (ip), vehicle: water 102 % of control

CSc1ccccc1C(=O)OC(C)(C)C
inactive: [1] 96 % of control | [2] 103 % of control | [3] 103 % of control

O=C(O)CCC(=O)c1ccc(Cl)cc1
inactive: endpoint: mean survival time, dose: 3.13 mg/kg/injection, schedule: Q04DX002 (ip), vehicle: saline with Tween-80 112 % of control | endpoint: mean survival time, dose: 6.25 mg/kg/injection, schedule: Q04DX002 (ip), vehicle: saline with Tween-80 97 % of control | endpoint: mean survival time, dose: 12.5 mg/kg/injection, schedule: Q04DX002 (ip), vehicle: saline with Tween-80 93 % of control | endpoint: mean survival time, dose: 25.0 mg/kg/injection, schedule: Q04DX002 (ip), vehicle: saline with Tween-80 97 % of control | endpoint: median survival time, dose: 200.0 mg/kg/injection, schedule: Q04DX002 (ip), vehicle: saline with Tween-80 94 % of control

COC1OC(CO)C(n2cnc3c2c(=O)n(C)c(=O)n3C)C=C1NC(C)=O (configuration not stated)
inactive: endpoint: mean survival time, dose: 12.5 mg/kg/injection, schedule: Q01DX005 (ip), vehicle: distilled water + Tween-80 100 % of control | endpoint: mean survival time, dose: 12.5 mg/kg/injection, schedule: Q01DX005 (ip), vehicle: water 88 % of control | endpoint: mean survival time, dose: 25.0 mg/kg/injection, schedule: Q01DX005 (ip), vehicle: distilled water + Tween-80 96 % of control | endpoint: mean survival time, dose: 25.0 mg/kg/injection, schedule: Q01DX005 (ip), vehicle: water 96 % of control | endpoint: mean survival time, dose: 50.0 mg/kg/injection, schedule: Q01DX005 (ip), vehicle: water 92 % of control | endpoint: mean survival time, dose: 100.0 mg/kg/injection, schedule: Q01DX005 (ip), vehicle: distilled water + Tween-80 92 % of control | endpoint: mean survival time, dose: 100.0 mg/kg/injection, schedule: Q01DX005 (ip), vehicle: water 103 % of control | endpoint: mean survival time, dose: 200.0 mg/kg/injection, schedule: Q01DX005 (ip), vehicle: distilled water + Tween-80 100 % of control | endpoint: mean survival time, dose: 200.0 mg/kg/injection, schedule: Q01DX005 (ip), vehicle: water 96 % of control

CC(=O)Oc1cccc(C#N)c1
inactive: [4] 100 % of control | [5] 100 % of control | [6] 96 % of control

O=C1CC2C3=C(CCC3)CCN2C2=C1CC(OC(=O)c1ccccc1)CC2 (configuration not stated)
inactive: endpoint: mean survival time, dose: 12.5 mg/kg/injection, schedule: Q04DX003 (ip), vehicle: saline with Tween-80 90 % of control | endpoint: mean survival time, dose: 25.0 mg/kg/injection, schedule: Q04DX003 (ip), vehicle: saline with Tween-80 88 % of control | endpoint: mean survival time, dose: 50.0 mg/kg/injection, schedule: Q04DX003 (ip), vehicle: saline with Tween-80 94 % of control

NC(=O)C(C(N)=O)c1ccnc2ccccc12
inactive: endpoint: mean survival time, dose: 6.25 mg/kg/injection, schedule: Q01DX001 (ip), vehicle: saline with Tween-80 102 % of control | endpoint: mean survival time, dose: 6.25 mg/kg/injection, schedule: Q01DX009 (ip), vehicle: saline with Tween-80 97 % of control | endpoint: mean survival time, dose: 12.5 mg/kg/injection, schedule: Q01DX001 (ip), vehicle: saline with Tween-80 103 % of control | endpoint: mean survival time, dose: 12.5 mg/kg/injection, schedule: Q01DX009 (ip), vehicle: saline with Tween-80 93 % of control | endpoint: mean survival time, dose: 25.0 mg/kg/injection, schedule: Q01DX001 (ip), vehicle: saline with Tween-80 96 % of control | endpoint: mean survival time, dose: 25.0 mg/kg/injection, schedule: Q01DX009 (ip), vehicle: saline with Tween-80 93 % of control

ClC1CCC[N-]C1.ClC1CCC[N-]C1.[Cl][Pt+2][Cl] (configuration not stated)
inactive: endpoint: mean survival time, dose: 0.78 mg/kg/injection, schedule: Q01DX009 (ip), vehicle: saline 103 % of control | endpoint: mean survival time, dose: 1.56 mg/kg/injection, schedule: Q01DX009 (ip), vehicle: saline 94 % of control | endpoint: mean survival time, dose: 3.13 mg/kg/injection, schedule: Q01DX009 (ip), vehicle: saline 102 % of control | endpoint: mean survival time, dose: 6.25 mg/kg/injection, schedule: Q01DX009 (ip), vehicle: saline 96 % of control | endpoint: mean survival time, dose: 12.5 mg/kg/injection, schedule: Q01DX009 (ip), vehicle: saline 89 % of control | [7] 108 % of control | [4] 95 % of control

COc1cc([C@@H]2c3cc4c(c(O)c3C[C@H]3COC(=O)[C@@H]32)OCO4)cc(OC)c1OC
inactive: endpoint: mean survival time, dose: 10.0 mg/kg/injection, schedule: Q04DX003 (ip), vehicle: saline 100 % of control | endpoint: mean survival time, dose: 20.0 mg/kg/injection, schedule: Q04DX003 (ip), vehicle: saline 108 % of control | endpoint: mean survival time, dose: 40.0 mg/kg/injection, schedule: Q04DX003 (ip), vehicle: saline 105 % of control | endpoint: mean survival time, dose: 80.0 mg/kg/injection, schedule: Q04DX003 (ip), vehicle: saline 121 % of control | endpoint: mean survival time, dose: 125.0 micrograms/kg/injection, schedule: Q01DX009 (ip), vehicle: saline 100 % of control | endpoint: mean survival time, dose: 250.0 micrograms/kg/injection, schedule: Q01DX009 (ip), vehicle: saline 108 % of control | endpoint: mean survival time, dose: 500.0 micrograms/kg/injection, schedule: Q01DX009 (ip), vehicle: saline 110 % of control | endpoint: mean survival time, dose: 2000.0 micrograms/kg/injection, schedule: Q01DX009 (ip), vehicle: saline 124 % of control | endpoint: mean survival time, dose: 4000.0 micrograms/kg/injection, schedule: Q01DX009 (ip), vehicle: saline 114 % of control

O=C(O)c1ccccc1C(c1ccccc1)c1ccccc1
inactive: [7] 94 % of control | [4] 94 % of control

COC(=O)C12OCC34C(CC5C(C)C6=CC(=O)OC6=CC5(C)C3C(O)C1O)OC(=O)C(OC(C)=O)C24 (configuration not stated)
inactive: endpoint: median survival time, dose: 0.13 mg/kg/injection, schedule: Q01DX009 (ip), vehicle: saline + alcohol 98 % of control | endpoint: median survival time, dose: 0.25 mg/kg/injection, schedule: Q01DX009 (ip), vehicle: saline + alcohol 98 % of control | endpoint: median survival time, dose: 0.5 mg/kg/injection, schedule: Q01DX009 (ip), vehicle: saline + alcohol 98 % of control | endpoint: median survival time, dose: 1.0 mg/kg/injection, schedule: Q01DX009 (ip), vehicle: saline + alcohol 100 % of control | endpoint: median survival time, dose: 2.0 mg/kg/injection, schedule: Q01DX009 (ip), vehicle: saline + alcohol 102 % of control and 103 % of control | endpoint: median survival time, dose: 4.0 mg/kg/injection, schedule: Q01DX009 (ip), vehicle: saline + alcohol 102 % of control | endpoint: median survival time, dose: 8.0 mg/kg/injection, schedule: Q01DX009 (ip), vehicle: saline + alcohol 94 % of control | endpoint: median survival time, dose: 16.0 mg/kg/injection, schedule: Q01DX009 (ip), vehicle: saline + alcohol 96 % of control

CC(C)(c1ccc(O)cc1)c1ccc(O)cc1
inactive: [4] 102 % of control | [5] 104 % of control | [6] 100 % of control

CCc1ccc(C(=O)N/N=C(\C)[C@]2(O)Cc3c(O)c4c(c(O)c3[C@@H](OC3CC(N)C(O)C(C)O3)C2)C(=O)c2c(OC)cccc2C4=O)cc1 (some centres not stated)
inactive: endpoint: mean survival time, dose: 0.25 mg/kg/injection, schedule: Q01DX009 (ip), vehicle: water 100 % of control | endpoint: mean survival time, dose: 0.5 mg/kg/injection, schedule: Q01DX009 (ip), vehicle: water 110 % of control | endpoint: mean survival time, dose: 1.0 mg/kg/injection, schedule: Q01DX009 (ip), vehicle: water 112 % of control | endpoint: mean survival time, dose: 8.0 mg/kg/injection, schedule: Q01DX009 (ip), vehicle: water 91 % of control

COc1ccc2c(c1)C(=O)C(Br)CC2 (configuration not stated)
inactive: [1] 101 % of control | [4] 98 % of control and 101 % of control | endpoint: mean survival time, dose: 100.0 mg/kg/injection, schedule: Q04DX002 (ip), vehicle: saline with Tween-80 101 % of control and 102 % of control | [8] 108 % of control | [2] 93 % of control | [5] 97 % of control and 98 % of control | endpoint: mean survival time, dose: 200.0 mg/kg/injection, schedule: Q04DX002 (ip), vehicle: saline with Tween-80 100 % of control and 104 % of control | [9] 97 % of control | [3] 95 % of control | endpoint: mean survival time, dose: 400.0 mg/kg/injection, schedule: Q04DX002 (ip), vehicle: saline with Tween-80 103 % of control and 104 % of control | endpoint: mean survival time, dose: 400.0 mg/kg/injection, schedule: Q04DX003 (ip), vehicle: saline with Tween-80 110 % of control

Cc1ccc(C(=O)c2ccccc2Cl)cc1
inactive: endpoint: mean survival time, dose: 15.0 mg/kg/injection, schedule: Q01DX009 (ip), vehicle: Klucel (hydroxypropylcellulose) (HPC) 91 % of control | endpoint: mean survival time, dose: 30.0 mg/kg/injection, schedule: Q01DX009 (ip), vehicle: Klucel (hydroxypropylcellulose) (HPC) 87 % of control | endpoint: mean survival time, dose: 60.0 mg/kg/injection, schedule: Q01DX009 (ip), vehicle: Klucel (hydroxypropylcellulose) (HPC) 87 % of control

CN(C)CCSCC(=O)N1c2ccccc2Sc2ccc(Cl)cc21
inactive: [7] 103 % of control | [4] 101 % of control | [8] 98 % of control | [9] 98 % of control
